Patent publication US10633389B2, “CARM1 inhibitors and uses thereof” (Epizyme, Inc., priority 2013, dated 2020)

The molecules below were run on asymmetric di-methyl PABP1 in RKO cells (assay: RKO methylation assay, In Cell Western (ICW) for asymmetric di-methyl PABP1). Conditions: Homo sapiens, RKO, Cellular potencies, ICW PABP1me2a.
Type: cell-based
Outline: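 In-cell Western on fixed RKO cells after 48 h compound exposure: anti-asymmetric di-methyl PABP1 signal at 800 nm over DRAQ5 DNA signal at 700 nm. Percent inhibition set between DMSO wells and wells with 20 μM reference compound; IC50 curves fitted in triplicate.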

Structure (SMILES)	IC50 [µM]
CNCC(O)COc1cccc(-c2nc(N[C@H]3[C@@H]4CN(C(=O)OC)C[C@@H]43)c(C)c(-c3c(C)noc3C)n2)c1 (stereo partly shown) [Example 282-1a]	< 5
CCOC(=O)N1CCC2(CC1)CN(c1nc(-c3cc(OC[C@H](O)CNC)ccc3F)nc(-c3c(C)noc3C)c1C)C2 [Example 282-3]	< 5
CNCC(O)COc1cccc(-c2nc(NCC3CCN(C4CC4)CC3)c(C)c(-c3c(C)noc3C)n2)c1 (stereo not shown) [Example 283-1a]	< 5
CNC[C@@H](O)COc1ccc(Cl)c(-c2nc(-c3c(C)noc3C)c(C)c(N3CC4(CCN(CC(F)F)CC4)C3)n2)c1 [Example 283-3]	< 5
CNCC(O)COc1cccc(-c2nc(OCC3CCN(C(=O)OC)CC3)c(C)c(-c3c(C)noc3C)n2)c1 (stereo not shown) [Example 284-1a]	< 5
CNC[C@@H](O)COc1ccc(Cl)c(-c2nc(-c3c(C)noc3C)c(C)c(N3CC4(CCN(C(=O)OC(C)C)CC4)C3)n2)c1 [Example 284-3]	< 5
CNCC(O)COc1cccc(-c2nc(OCC3CCN(C(=O)N(C)C)CC3)c(C)c(-c3c(C)noc3C)n2)c1 (stereo not shown) [Example 285-1a]	< 5
CCOC(=O)N1CCC2(CC1)CN(c1nc(-c3cc(OC[C@H](O)CNC)ccc3Cl)nc(-c3c(C)noc3C)c1C)C2 [Example 285-3]	< 5
CNCC(O)COc1cccc(-c2nc(OCC3CCN(S(C)(=O)=O)CC3)c(C)c(-c3c(C)noc3C)n2)c1 (stereo not shown) [Example 286-1a]	< 5
CNC[C@@H](O)COc1ccc(Cl)c(-c2nc(-c3c(C)noc3C)c(C)c(N3CC4(CCN(C(=O)OC(C)C)C4)C3)n2)c1 [Example 286-3]	< 5
CNCC(O)COc1cccc(-c2nc(OCC3CCN(C(C)=O)CC3)c(C)c(-c3c(C)noc3C)n2)c1 (stereo not shown) [Example 287-1a]	< 5
CCOC(=O)N1CCC2(C1)CN(c1nc(-c3cc(OC[C@H](O)CNC)ccc3Cl)nc(-c3c(C)noc3C)c1C)C2 [Example 287-3]	< 5
CNCC(O)COc1cccc(-c2nc(OCC3CCN(CC(F)F)CC3)c(C)c(-c3c(C)noc3C)n2)c1 (stereo not shown) [Example 288-1a]	< 5
CNC[C@@H](O)COc1ccc(Cl)c(-c2nc(-c3c(C)noc3C)c(C)c(N3CCC4(CCOC4)C3)n2)c1 (stereo partly shown) [Example 288-3]	< 5
CNCC(O)COc1cccc(-c2nc(OCC3CCNCC3)c(C)c(-c3c(C)noc3C)n2)c1 (stereo not shown) [Example 289-1a]	5 to 10
CNC[C@@H](O)COc1ccc(Cl)c(-c2nc(-c3c(C)noc3C)c(C)c(N3CCC4(CCCO4)C3)n2)c1 (stereo partly shown) [Example 289-3]	< 5
CNCC(O)COc1cccc(-c2nc(NC3CCOC(C)(C)C3)c(C)c(-c3c(C)noc3C)n2)c1 (stereo not shown) [Example 290-1a]	< 5
CNC[C@@H](O)COc1ccc(Cl)c(-c2nc(-c3c(C)noc3C)c(C)c(N3CC4(CCCCO4)C3)n2)c1 [Example 290-3]	< 5
CNCC(O)COc1cccc(-c2nc(N[C@@H]3CCOC3=O)c(C)c(-c3c(C)noc3C)n2)c1 (stereo partly shown) [Example 291-1a]	10 to 20
CCN1CCC(Nc2nc(-c3cc(OC[C@H](O)CNC)ccc3Cl)nc(-c3c(C)noc3C)c2C)C(F)(F)C1 (stereo partly shown) [Example 291-3]	< 5
CNCC(O)COc1cccc(-c2nc(NC3CCC3)c(C)c(-c3c(C)noc3C)n2)c1 (stereo not shown) [Example 292-1a]	< 5
CNC[C@@H](O)COc1ccc(Cl)c(-c2nc(NC3CCN(C4CC4)CC3(F)F)c(C)c(-c3c(C)noc3C)n2)c1 (stereo partly shown) [Example 292-3]	< 5
CNCC(O)COc1cccc(-c2nc(NC3CC3)c(C)c(-c3c(C)noc3C)n2)c1 (stereo not shown) [Example 293-1a]	< 5

Structure (SMILES)	IC50 [µM]
CNC[C@@H](O)COc1ccc(Cl)c(-c2nc(-c3c(C)noc3C)c(C)c(N3Cc4cn(S(C)(=O)=O)nc4C3)n2)c1 [Example 293-3]	< 5
CNCC(O)COc1cccc(-c2nc(-c3c(C)noc3C)c(C)c(N3CCC4(CC3)CN(C3CC3)C4)n2)c1 (stereo not shown) [Example 294-1a]	< 5
CNC[C@@H](O)COc1ccc(F)c(-c2nc(-c3c(C)noc3C)c(Cl)c(N3CC4(CCOCC4)C3)n2)c1 [Example 294-3]	< 5
CCOC(=O)N1CC2(CCCN(c3nc(-c4cccc(OCC(O)CNC)c4)nc(-c4c(C)noc4C)c3C)C2)C1 (stereo not shown) [Example 295-1a]	< 5
CNC[C@@H](O)COc1ccc(F)c(-c2nc(-c3c(C)noc3C)c(Cl)c(N3Cc4nccnc4C3)n2)c1 [Example 295-3]	< 5
CCS(=O)(=O)N1CC2(CCCN(c3nc(-c4cccc(OCC(O)CNC)c4)nc(-c4c(C)noc4C)c3C)C2)C1 (stereo not shown) [Example 296-1a]	5 to 10
CNC[C@@H](O)COc1ccc(Cl)c(-c2nc(-c3c(C)noc3C)c(C)c(N3Cc4cc(C)cnc4C3)n2)c1 [Example 296-3]	< 5
CNCC(O)COc1cccc(-c2nc(-c3c(C)noc3C)c(C)c(N3CCCC4(CN(C(=O)N(C)C)C4)C3)n2)c1 (stereo not shown) [Example 297-1a]	5 to 10
CNC[C@@H](O)COc1ccc(Cl)c(-c2nc(-c3c(C)noc3C)c(F)c(N3Cc4nccnc4C3)n2)c1 [Example 297-3]	< 5
CNCC(O)COc1cccc(-c2nc(-c3c(C)noc3C)c(C)c(N3CC(CO)(CNC(=O)N(C)C)C3)n2)c1 (stereo not shown) [Example 298-1a]	10 to 20
CNCC(O)COc1cccc(-c2nc(-c3c(C)noc3C)c(C)c(N3CC4(CN(C(=O)OC)C4)C3)n2)c1 (stereo not shown) [Example 299-1a]	< 5
CNCC(O)COc1cccc(-c2nc(NCC3(OC)CCOCC3)c(C)c(-c3c(C)noc3C)n2)c1 (stereo not shown) [Example 300-1a]	< 5
CNCC(O)COc1cccc(-c2nc(NCC3(N4CCC4)CCOCC3)c(C)c(-c3c(C)noc3C)n2)c1 (stereo not shown) [Example 301-1a]	5 to 10
CNCC(O)COc1cccc(-c2nc(NCC3(N4CC(F)(F)C4)CCOCC3)c(C)c(-c3c(C)noc3C)n2)c1 (stereo not shown) [Example 302-1a]	< 5
CNCC(O)COc1cccc(-c2nc(OCC3CCN(C4CC4)CC3)c(C)c(-c3c(C)noc3C)n2)c1 (stereo not shown) [Example 303-1a]	< 5
CNC[C@H](O)COc1ccc(Cl)c(-c2nc(NC3CCN(C(=O)OC)CC3)c(Cl)c(-c3c(C)noc3C)n2)c1 [Example 305-1a]	< 5
CNCC(O)COc1cccc(-c2nc(NC[C@@H]3CN(C(=O)OC)CCO3)c(C)c(-c3c(C)noc3C)n2)c1 (stereo partly shown) [Example 306-1a]	< 5
CNCC(O)COc1cccc(-c2nc(N[C@@H]3CCNC3)c(C)c(-c3c(C)noc3C)n2)c1 (stereo partly shown) [Example 307-1a]	10 to 20
CNCC(O)COc1cccc(-c2nc(-c3c(C)noc3C)c(C)c(N(C)C)n2)c1 (stereo not shown) [Example 308-1a]	< 5
CNCC(O)COc1cccc(-c2nc(-c3c(C)noc3C)c(C)c(N3CC4(CN(C(=O)N(C)C)C4)C3)n2)c1 (stereo not shown) [Example 309-1a]	< 5
CNCC(O)COc1cc(Cl)cc(-c2nc(N[C@@H]3CCOC3)c(C)c(-c3ccncc3)n2)c1 (stereo partly shown) [Example 331-1a]	5 to 10
CNCC(O)COc1cccc(-c2nc(N[C@@H]3CCOC3)c(C)c(-c3ccncc3)n2)c1 (stereo partly shown) [Example 332-1a]	10 to 20
CNCC(O)COc1cc(Cl)cc(-c2nc(-c3ccncc3)c(C)c(N(C)[C@H]3CCOC3)n2)c1 (stereo partly shown) [Example 334-1a]	10 to 20

Structure (SMILES)	IC50 [µM]
CNCC(O)COc1cccc(-c2nc(NC3CCOC3)c(C)c(-c3cn(C)nn3)n2)c1 (stereo not shown) [Example 335-1a]	5 to 10
CNCC(O)COc1cccc(-c2nc(N[C@@H]3CCOC3)c(C)c(-c3cn[nH]c3)n2)c1 (stereo partly shown) [Example 338-1a]	10 to 20
CNCC(O)COc1cccc(-c2nc(-c3ccncc3)c(C)c(N(C)[C@@H]3CCOC3)n2)c1 (stereo partly shown) [Example 339-1a]	10 to 20
CNCC(O)COc1cccc(-c2nc(N[C@@H]3CCOC3)c(C)c(-c3cncc(C(=O)OC)c3)n2)c1 (stereo partly shown) [Example 340-1a]	10 to 20
CNCC(O)COc1cccc(-c2nc(N[C@@H]3CCOC3)c(C)c(-c3cncc(C#N)c3)n2)c1 (stereo partly shown) [Example 341-1a]	10 to 20
CNCC(O)COc1cccc(-c2nc(N[C@@H]3CCOC3)c(C)c(-c3cncnc3)n2)c1 (stereo partly shown) [Example 350-1a]	10 to 20
CNCC(O)COc1cccc(-c2nc(NC3CCOC3)c(C)c(N3CCN[C@@H](C)C3)n2)c1 (stereo partly shown) [Example 351-1a]	5 to 10
CNCC(O)COc1cccc(-c2nc(NC3CCOC3)c(C)c(N3CCNC[C@H]3C)n2)c1 (stereo partly shown) [Example 352-1a]	10 to 20
CNCC(O)COc1cccc(-c2nc(N[C@@H]3CCOC3)c(C)c(-c3cnc4[nH]ccc4c3)n2)c1 (stereo partly shown) [Example 355-1a]	10 to 20
CNCC(O)COc1cccc(-c2nc(N[C@@H]3CCOC3)c(C)c(-c3cnc(OC)nc3)n2)c1 (stereo partly shown) [Example 356-1a]	10 to 20
CNCC(O)COc1cccc(-c2nc(N[C@@H]3CCOC3)c(C)c(N3CCC[C@@H](O)C3)n2)c1 (stereo partly shown) [Example 358-1a]	10 to 20
CNCC(O)COc1cccc(-c2nc(N[C@@H]3CCOC3)c(C)c(N3CCn4ccnc4C3)n2)c1 (stereo partly shown) [Example 359-1a]	10 to 20
CNCC(O)COc1cccc(-c2nc(NCCCCl)c(C)c(N[C@@H]3CCOC3)n2)c1 (stereo partly shown) [Example 366-1a]	10 to 20
CNCC(O)COc1cccc(-c2nc(N[C@@H]3CCOC3)c(C)c(N3CCC(N4CCOCC4)CC3)n2)c1 (stereo partly shown) [Example 367-1a]	5 to 10
CNCC(O)COc1cccc(-c2nc(N[C@@H]3CCOC3)c(C)c(N3CC[C@H](N(C)C)C3)n2)c1 (stereo partly shown) [Example 368-1a]	< 5
CNCC(O)COc1cccc(-c2nc(N[C@@H]3CCOC3)c(C)c(N3CC[C@@H](OC)C3)n2)c1 (stereo partly shown) [Example 369-1a]	10 to 20
CNCC(O)COc1cccc(-c2nc(N[C@@H]3CCOC3)c(C)c(N3CCC(OC)CC3)n2)c1 (stereo partly shown) [Example 370-1a]	5 to 10
CNCC(O)COc1cccc(-c2nc(N[C@@H]3CCOC3)c(Cl)c(N3CCOCC3)n2)c1 (stereo partly shown) [Example 376-1a]	5 to 10
CNCC(O)COc1cccc(-c2nc(N[C@@H]3CCOC3)c(C)c(N3CCC3)n2)c1 (stereo partly shown) [Example 377-1a]	10 to 20
CNCC(O)COc1cccc(-c2nc(N[C@@H]3CCOC3)c(C)c(N3CCC[C@H]4CN(Cc5ccccc5)C[C@H]43)n2)c1 (stereo partly shown) [Example 378-1a]	10 to 20
CNCC(O)COc1cccc(-c2nc(N[C@@H]3CCOC3)c(C)c(N(C)C3CCN(C)CC3)n2)c1 (stereo partly shown) [Example 379-1a]	10 to 20
